We go through 5 compounds from patent US9656949B2, “Substituted carboxylic acid derivatives as aggrecanase inhibitors for the treatment of osteoarthritis” (MERCK PATENT GMBH, priority 2013, dated 2017).

A short description of one data set: Solubility pH7.4. In kind it is physicochemical. Particulars: pH 7.4, aqueous buffer.
For data set [1], the system named is bovine cartilage explants. In words: GAG-Assay (GAG release from bovine cartilage explants). Format: cell-based. Particulars: Bos taurus, GAG release into supernatant, unit inferred. The method, then:
The assay is based on bovine cartilage explants from the metacarpal joint (MCP) with a diameter of 4 mm and a thickness of 1-2 mm. Explants are freshly harvested at the day of slaughter. Before the start of the experiment, explants are incubated in DMEM medium+10% serum+30 μg/ml ascorbic acid for 48 h (200 μl). The pre-incubation is performed to enlarge the assay window. Explants are incubated at 37° C. and 7.5% CO2. The number of replicates for all groups is n=4.
Induction of cartilage degradation is induced by treatment of the explants with IL-1 alpha (10 ng/ml) in serum-free medium for 5 days. As negative control, explants are left untreated in serum-free DMEM medium. This control is not part of the baseline calculation but an internal control for the degree of degradation which is strictly dependent on the IL1-alpha quality. IL-1 alpha induces the activity of proteases such as ADAMTS-5 and MMPs which in turn degrade the matrix. Degradation products of the matrix (GAG: glycosaminoglycan) can be measured in the supernatant. The level of GAG release induced by IL1-alpha is defined as the 0% effect level. […] This DRC is the basis for the IC50 calculation.
IL-1 alpha and the ADAMTS-5 inhibitors are incubated for 5 days, then GAG is measured in the supernatant. The explants are digested with papain to determine the amount of GAG in the explants.
In order to investigate the effect of potential cathepsin D inhibitors on cartilage degradation, a pH-induced model based on bovine explants is used. The pH of the medium in which the explants are cultivated is matched here to the pathophysiological pH of an arthritic knee. This pH is pH 5.5. […] The amount of GAGs liberated can be determined quantitatively with the aid of DMMB (dimethylmethylene blue hydrochloride). If sulfated GAGs are detected using dimethylmethylene blue hydrochloride, the decrease in the absorption at 633 nm is utilised. […] In order to determine the concentration, a calibration line is also recorded using chondroitin sulfate. […]

Data set [2] has as its target T1, human recombinant AdamTS-5 (Homo sapiens, UniProt Q9UNA0).
T1 construct: purchased R&D systems, Wiesbaden, Germany
T1 sequence (Q9UNA0 262-930): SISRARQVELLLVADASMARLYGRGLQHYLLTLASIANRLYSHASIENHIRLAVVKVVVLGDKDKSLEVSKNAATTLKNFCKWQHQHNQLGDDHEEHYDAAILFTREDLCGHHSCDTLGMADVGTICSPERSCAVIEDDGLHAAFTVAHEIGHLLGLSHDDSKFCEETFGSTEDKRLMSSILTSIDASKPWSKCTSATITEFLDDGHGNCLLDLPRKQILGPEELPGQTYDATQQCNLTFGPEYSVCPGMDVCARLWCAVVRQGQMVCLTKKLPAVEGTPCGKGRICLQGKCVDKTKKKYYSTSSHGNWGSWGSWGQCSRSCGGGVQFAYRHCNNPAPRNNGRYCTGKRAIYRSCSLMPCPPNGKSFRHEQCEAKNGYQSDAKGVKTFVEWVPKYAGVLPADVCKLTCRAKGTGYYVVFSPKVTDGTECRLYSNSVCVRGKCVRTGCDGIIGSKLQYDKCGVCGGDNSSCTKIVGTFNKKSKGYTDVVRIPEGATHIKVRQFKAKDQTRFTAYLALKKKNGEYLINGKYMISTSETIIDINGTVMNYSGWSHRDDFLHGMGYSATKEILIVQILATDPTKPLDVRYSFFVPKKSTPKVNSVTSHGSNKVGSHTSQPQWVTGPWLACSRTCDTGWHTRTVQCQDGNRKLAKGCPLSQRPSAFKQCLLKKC
Description: Biochemical activity testing of ADAMTS-5: aggrecan peptide cleavage assay (AlphaScreen). The following applies: 4.5 nM human recombinant AdamTS-5, biotinylated 43mer aggrecan peptide, 180 min at 37° C.; read-out: IC50 [ADAM-NTS5]M. As for the experimental part: ADAMTS-5 is a metallo protease with glutamyl-endoprotease activity and cleaves aggrecan core protein at E373-A374 in the interglobular domain. To fully analyse the inhibitory potential of compounds on AdamTS-5 activity an Alphascreen® assay with a biotinylated 43mer aggrecan oligopeptide as substrate was performed. Cleavage by ADAMTS-5 caused production of a neoepitop N-terminus ARGS at the C-terminal fragment. The detection of this product is performed with streptavidin-AlphaScreen® donor beads binding to the biotin label and an anti-neoepitop (“ARGSV”) antibody that anchors anti-mouse IgG-coated AlphaLisa® acceptor beads to the other end of the generated fragment. Thereby, donor and acceptor beads get in proximity and a luminescence Alphascreen® signal is generated via the release of singlet oxygen. The cleavage activity was detectable directly by the increase in Alphascreen® signal.
The aggrecan peptide cleavage assay was performed as 384 well AlphaScreen® (Perkin Elmer) assay format in Perkin Elmer 384 AlphaPlate (proxiplate) shallow well microtiter plates and was used for high throughput screen in a total assay volume of 10 μl. 4.5 nM human recombinant AdamTS-5 (R&D systems, Wiesbaden, Germany) and 30 nM biotinylated peptide […]-K(bio) (custom-made, Biosynthan, Berlin, Germany) as substrate were incubated in a total volume of 6 μl (100 mM Tris/HCl, 150 mM NaCl, 10 mM CaCl2, 0.05% Brij®-35, 1% DMSO, 0.084% BSA, pH 7.5) in the absence or presence of the test compound (10 dilution concentrations) for 180 min at 37° C. The reaction was stopped and the first detection step performed by the addition of 2 μl detection solution 1 (48 mM EDTA, 8 nM aggrecan antibody N-term neoepitope ARG, mouse monoclonal BC3 antibody (MDBioproducts, Egg, Switzerland), 100 μg/ml Streptavidin Alphascreen® donor beads (Perkin Elmer, Rodgau, Germany) in 100 mM Tris/HCl, 150 mM NaCl, 0.05% Brij®-35, 0.1% BSA, pH 7.5). After an one-hour incubation at 37° C. 2 μl of the second detection solution (25 μg/ml anti-mouse AlphaLisa® acceptor beads (Perkin Elmer, Rodgau, Germany) in 100 mM Tris/HCl, 150 mM NaCl, 0.05% Brij®-35, 0.1% BSA, pH 7.5 were added. The plates were incubated for […] in the dark.
The AlphaScreen signal was measured with an Envision multimode reader (Perkin Elmer LAS Germany GmbH) with the Alphascreen protocol from Perkin Elmer (laser mode) emission wavelength 570 nm. The full value used was the inhibitor-free reaction. For the zero value a pharmacological reference was used. The inhibitory values (IC50) for the compounds were determined using either the program Symyx Assay Explorer® or Condosseo® from GeneData.

Data set [3] relates to carrageenan-induced inflammation of rat knee joint. In words: Investigation of the anti-hyperalgesic effect in animals (carrageenan injected intra-articularly into rat knee joint). Format: in vivo. The following applies: intra-articular administration 30 minutes before CAR. The method, then: In order to induce an inflammation reaction, a carrageenan solution (CAR, 1%, 50 μl) was injected intra-articularly on one side into a rat knee joint. The uninjected side was used for control purposes. Six animals per group were used. The […] was determined by means of a micrometer screw (medial-lateral on the knee joint), and the thermal hyperalgesia was determined by means of a directed infrared light source by the Hargreaves method (Hargreaves et al., 1988) on the sole of the foot. Since the site of inflammation (knee joint) is different from the site of measurement (paw sole), use is made here of the term secondary thermal hyperalgesia, the mechanism of which is of importance for the discovery of effective analge-sics.
Experimental description of thermal hyperalgesia (Hargreaves test): the experimental animal is placed in a plastic chamber on a quartz sheet. Before testing, the experimental animal is firstly given about 5-15 minutes time to familiarise itself with the environment. […] Light reflected by the paw is recorded as long as the experimental animal sits still. Withdrawal of the paw interrupts this reflection, after which the infrared light source is switched off and the time from switching on to switching off is recorded. […]

Values after ≈ are worked out from the molar mass of the structure shown. Starred links: 1 amine or outer side, 2 acyl side, 3 side chain; linkers in the order of their positions; H or OH if unused. Non-standard residues stand in square brackets, D forms with d. Residues, ends and D or L forms follow the SMILES beside them. *: point of attachment. X1 = N[C@@H](CC(=O)[*:2])[C@H](Cc1ccccc1)N[*:1]; Isovaleryl = CC(C)CC(=O)*

`C[C@@H](C[C@H](NC(=O)c1ccc(-c2ccccc2)cc1)C(=O)NC(C)(C)Cc1ccc(F)cc1)C(=O)O` [Compound 5, (2S,4S)-4-[(Biphenyl-4-carbonyl)-amino]-4-[2-(4-fluoro-phenyl)-1,1-dimethyl-ethylcarbamoyl]-2-methyl-butyric acid]: the solubility in “Solubility pH7.4” worked out at 677 µg/mL (≈ 1380 µM). The IC50 was found to be 1800 nM in data set [1] and 85 nM in data set [2].

Consider `CCC[C@@H](C[C@H](NC(=O)c1ccc(-c2ccccc2)cc1)C(=O)NC(C)(C)Cc1ccc(F)cc1)C(=O)O` [Compound 7], for which the concentration in solution in the data set “Solubility pH7.4” (solubility) was 157 µg/mL (≈ 303 µM). In addition, the results for the IC50 in data set [1] and in data set [2] were 1000 nM and 170 nM, respectively.

The compound `COC[C@@H](C[C@H](NC(=O)c1ccc(-c2ccccc2)cc1)C(=O)NC(C)(C)Cc1ccc(F)cc1)C(=O)O` [Compound 8] had a solubility in the data set “Solubility pH7.4” of 838 µg/mL (≈ 1610 µM). Further, the IC50 in data set [1] is 1200 nM; in data set [2], 170 nM.

As for `C[C@]12C=CC(=O)C=C1CC[C@H]1[C@@H]3C[C@@H](O)[C@](O)(C(=O)CO)[C@@]3(C)C[C@H](O)[C@@]12F` [TAC, Triamcinolone, reference compound], the CAR-induced swelling entry in data set [3] (rat knee joint, TAC 10 μg/joint) is listed as “capable of reducing the CAR-induced swelling”.

For `CC[C@H](C)[C@H](NC(=O)C[C@H](N)[C@H](Cc1ccccc1)NC(=O)[C@@H](NC(=O)[C@H](CC(C)C)NC(=O)CC(C)C)C(C)C)C(=O)N[C@H](C(=O)O)C(C)C` [specific DDR2 inhibitor, (S)-2-[(2S,3S)-2-((3S,4S)-3-amino-4-{(S)-3-methyl-2-[(S)-4-methyl-2-(3-methyl-butyrylamino)pentanoylamino]butyrylamino}-5-phenylpentanoylamino)-3-methylpentanoylamino]-3-methylbutyric acid] (Isovaleryl-LV[X1]IV-OH), the “thermal hyperalgesia (Hargreaves test)” value in data set [3] (rat, difference in withdrawal times between inflamed and non-inflamed paw) is on record as “able to reduce the extent of thermal hyperalgesia as a function of the dose”.

By solubility is commonly meant how much of the substance goes into solution per volume. High values mean a readily soluble substance, low ones a poorly soluble substance. The IC50 is the concentration that gives 50% inhibition.
